The results in this text go back to ChEMBL document CHEMBL5316308, “BET-HDAC Dual Inhibitors for Combinational Treatment of Breast Cancer and Concurrent Candidiasis” (J Med Chem, 2023).

Molecules are shown by their SMILES. Values after ≈ are worked out from the molar mass of the structure shown. Active and inactive are the calls of the source. The calls are words filed in the database; no cut-off is given here. Where only a bound is given, the exact number is not on record here.

Series [1] concerns MDA-MB-231. Put plainly: Upregulation of acetyl-H3 level in human MDA-MB-231 cells incubated for 24 hrs by Western blot analysis. It counts as functional, cell-based. The conditions noted are these: dose 0.2-5 µM. (A western blot detects proteins with antibodies after separation by electrophoresis.)
The target of the next series is Histone deacetylase 1 (Homo sapiens, UniProt Q13547). Put plainly: Inhibition of full-length recombinant human HDAC1 (1 to 482 residues) expressed in baculovirus infected insect cells using Ac-Leu-Gly-Lys(Ac)-AMC as substrate incubated for 30 mins by fluorescence based assay. More on the design: species or system Insect cell.
Sequence of Histone deacetylase 1 (Q13547 whole entry, the tested form may be a part): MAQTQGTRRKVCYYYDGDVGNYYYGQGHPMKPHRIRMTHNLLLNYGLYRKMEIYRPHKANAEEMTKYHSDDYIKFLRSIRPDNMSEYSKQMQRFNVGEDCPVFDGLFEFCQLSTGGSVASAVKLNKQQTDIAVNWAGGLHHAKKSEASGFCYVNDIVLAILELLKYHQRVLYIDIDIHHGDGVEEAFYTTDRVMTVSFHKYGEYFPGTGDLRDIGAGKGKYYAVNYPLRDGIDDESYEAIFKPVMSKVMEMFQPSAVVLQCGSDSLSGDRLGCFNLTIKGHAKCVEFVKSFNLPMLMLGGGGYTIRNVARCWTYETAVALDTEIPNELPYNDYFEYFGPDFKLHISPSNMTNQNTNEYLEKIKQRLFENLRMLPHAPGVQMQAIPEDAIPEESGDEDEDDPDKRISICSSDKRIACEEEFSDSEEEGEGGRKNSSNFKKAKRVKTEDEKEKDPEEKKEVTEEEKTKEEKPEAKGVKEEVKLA
Series [2] has as its target Bromodomain-containing protein 4 (Homo sapiens, UniProt O60885). Nature of the series: Inhibition of recombinant BRD4 (unknown origin) incubated for 120 mins by TR-FRET assay. A general note: In TR-FRET formats the signal depends on donor and acceptor labels being close together.
The subject of another series is K562. Put plainly: Antiproliferative activity against human K562 cells assessed as cell growth inhibition incubated for 24 hrs by CCK-8 assay. It counts as functional, cell-based. The conditions noted are these: K562, 24 h.
The next series relates to HEL. Put plainly: Antiproliferative activity against human HEL cells assessed as cell growth inhibition incubated for 24 hrs by CCK-8 assay. It counts as functional, cell-based. A general note: Formazan colour is commonly taken as a measure of viable cells.
Series [3] has as its system MDA-MB-231. Put plainly: Antiproliferative activity against human MDA-MB-231 cells assessed as cell growth inhibition incubated for 24 hrs by CCK-8 assay. Conditions: MDA-MB-231, 24 h. It counts as functional, cell-based.
For a further series, the system named is Cryptococcus neoformans. Put plainly: Antifungal activity against Cryptococcus neoformans H99 assessed as fungal growth inhibition measured after 48 hrs by CLSI based micro-dilution broth method. It counts as functional.
Series [4] deals with Candida albicans. Put plainly: microbe, parasite or virus in culture. It counts as functional. The conditions noted are these: 0304103, time 48 hrs.
Description: Synergistic antifungal activity against azole-resistant Candida albicans 0304103 assessed as fungal growth inhibition measured after 48 hrs by CLSI based micro-dilution broth method
Series [5] deals with Candida albicans. It counts as functional, 0304103. Conditions: time 48 hrs.
Description: Synergistic antifungal activity against azole-resistant Candida albicans 0304103 assessed as fractional inhibitory concentration index measured after 48 hrs in presence of FLC by CLSI based micro-dilution broth method
Another series has as its target Histone deacetylase 2 (Homo sapiens, UniProt Q92769). Put plainly: Inhibition of C-terminal GST-tagged full-length recombinant human HDAC2 expressed in baculovirus infected Sf9 insect cells using Ac-Leu-Gly-Lys(Ac)-AMC as substrate incubated for 30 mins by fluorescence based assay. It counts as cell-based.
In the next series the target is Histone deacetylase 3 (Homo sapiens, UniProt O15379). Put plainly: Inhibition of His-tagged recombinant human HDAC3 expressed in baculovirus infected insect cells using Ac-Leu-Gly-Lys(Ac)-AMC as substrate incubated for 30 mins by fluorescence based assay. Set-up: species or system Insect cell.
Sequence of Histone deacetylase 3 (O15379 whole entry): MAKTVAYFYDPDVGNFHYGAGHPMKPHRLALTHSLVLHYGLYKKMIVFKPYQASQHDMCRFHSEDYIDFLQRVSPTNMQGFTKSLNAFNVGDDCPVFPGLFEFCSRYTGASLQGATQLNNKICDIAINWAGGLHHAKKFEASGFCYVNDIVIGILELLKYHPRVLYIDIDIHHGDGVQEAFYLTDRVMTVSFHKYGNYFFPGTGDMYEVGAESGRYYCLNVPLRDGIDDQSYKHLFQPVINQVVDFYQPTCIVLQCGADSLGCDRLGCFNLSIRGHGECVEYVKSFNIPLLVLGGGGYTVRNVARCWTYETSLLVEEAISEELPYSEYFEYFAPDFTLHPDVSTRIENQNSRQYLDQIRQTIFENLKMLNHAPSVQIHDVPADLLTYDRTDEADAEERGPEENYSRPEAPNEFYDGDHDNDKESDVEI
In a further series the target is T1, Histone deacetylase 8 (Homo sapiens, UniProt Q9BY41).
T1 sequence (Q9BY41 whole entry): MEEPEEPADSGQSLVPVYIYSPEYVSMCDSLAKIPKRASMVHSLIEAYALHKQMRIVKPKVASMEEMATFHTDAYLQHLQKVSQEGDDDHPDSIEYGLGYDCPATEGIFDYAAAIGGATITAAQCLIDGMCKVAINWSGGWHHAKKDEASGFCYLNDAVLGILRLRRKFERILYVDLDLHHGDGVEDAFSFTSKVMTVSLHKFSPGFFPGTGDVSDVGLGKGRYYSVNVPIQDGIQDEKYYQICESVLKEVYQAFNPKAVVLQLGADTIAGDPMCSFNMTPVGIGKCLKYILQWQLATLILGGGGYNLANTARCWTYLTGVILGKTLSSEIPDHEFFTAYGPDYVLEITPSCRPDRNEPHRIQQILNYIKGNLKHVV
Nature of the series: Inhibition of C-terminal His-tagged full-length recombinant human HDAC8 expressed in baculovirus infected Sf9 insect cells using Ac-Leu-Gly-Lys(Tfa)-AMC as substrate incubated for 30 mins by fluorescence based assay.

The target of series [6] is Bromodomain testis-specific protein (Homo sapiens, UniProt Q58F21). Nature of the series: Inhibition of recombinant BRDT BD1 (unknown origin) incubated for 120 mins by TR-FRET assay.
Series [7] concerns MDA-MB-231. Nature of the series: Induction of apoptosis in human MDA-MB-231 cells incubated for 48 hrs by Annexin V-FITC/PI staining based flow cytometry. Conditions: dose 2.5-10 µM. It counts as functional, cell-based.
Series [8] relates to MDA-MB-231. Put plainly: Induction of apoptosis in human MDA-MB-231 cells assessed as late apoptotic cells at 2.5 uM incubated for 48 hrs by Annexin V-FITC/PI staining based flow cytometry relative to control. It counts as functional.
Series [9] has as its system MDA-MB-231. Put plainly: Induction of apoptosis in human MDA-MB-231 cells assessed as late apoptotic cells at 5 uM incubated for 48 hrs by Annexin V-FITC/PI staining based flow cytometry relative to control. It counts as functional.
The test system of series [10] is MDA-MB-231. Nature of the series: Induction of apoptosis in human MDA-MB-231 cells assessed as late apoptotic cells at 10 uM incubated for 48 hrs by Annexin V-FITC/PI staining based flow cytometry relative to control. It counts as functional.
Series [11] concerns Candida albicans. Nature of the series: Synergistic antifungal activity against azole-resistant Candida albicans 0304103 assessed as fungal growth inhibition at 32 ug/ml measured upto 24 hrs in presence of 1 to 4 ug/ml FLC by absorbance based assay. It counts as functional, organism-based. The conditions noted are these: dose 32.0 µg/ml.
The test system of series [12] is Candida albicans. Put plainly: Synergistic antifungal activity FLC-resistant Candida albicans 0304103 assessed as hyphal formation at 32 ug/ml incubated for 3 hrs in presence of FLC by inverse fluorescent microscopy. It counts as functional, organism-based. Conditions: dose 32.0 µg/ml.
Series [13] can be described thus: Metabolic stability in ICR mouse liver microsome assessed as half life. It counts as ADME. Conditions: liver microsomes.
Series [14] in a line: Metabolic stability in ICR mouse liver microsome assessed as clearance. It counts as ADME. Conditions: liver microsomes, read-out: CLH.
Series [15] concerns MDA-MB-231. Nature of the series: Antitumor activity against human MDA-MB-231 cells xenografted in Balb/c nude mouse assessed as tumor growth inhibition at 10 mg/kg, ip qd for 21 consecutive days relative to control. It counts as functional. The conditions noted are these: MDA-MB-231, 480 h, time 20 day, read-out: TGI.
The subject of series [16] is Candida albicans. Put plainly: Synergistic antifungal activity against Candida albicans 0304103 infected in ICR mouse assessed as decrease in kidney fungal load at 10 to 20 mg/kg, ip for 5 consecutive days. It counts as functional, organism-based. Conditions: dose 10-20 mg/kg, time 5.0 day.

Sequence of Histone deacetylase 2 (Q92769 whole entry): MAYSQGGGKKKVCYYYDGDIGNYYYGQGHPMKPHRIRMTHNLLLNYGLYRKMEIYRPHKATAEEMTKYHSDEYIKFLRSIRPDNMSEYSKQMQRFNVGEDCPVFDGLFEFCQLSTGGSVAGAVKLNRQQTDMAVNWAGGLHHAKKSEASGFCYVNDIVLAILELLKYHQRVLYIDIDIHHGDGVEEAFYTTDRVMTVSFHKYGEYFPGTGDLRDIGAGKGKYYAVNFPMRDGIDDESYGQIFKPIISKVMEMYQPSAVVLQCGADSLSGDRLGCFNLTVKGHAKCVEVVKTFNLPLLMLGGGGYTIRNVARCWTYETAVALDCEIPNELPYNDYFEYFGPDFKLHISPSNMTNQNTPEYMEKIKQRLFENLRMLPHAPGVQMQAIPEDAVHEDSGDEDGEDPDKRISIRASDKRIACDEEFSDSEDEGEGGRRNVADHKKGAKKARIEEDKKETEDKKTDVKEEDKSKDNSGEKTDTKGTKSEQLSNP

For the compound `COc1cc2c(cc1-c1c(C)noc1C)[nH]c1ncnc(NCCCCCCC(=O)NO)c12`, the Activity result with MDA-MB-231 [1] was “Dose-Dependent Effect”; in the series with MDA-MB-231 [7], “Dose-Dependent Effect”; in the series on MDA-MB-231 [8] it was 25.19%; in the series on MDA-MB-231 [9], 58.39%; in the series with MDA-MB-231 [10] it was 69.85%. In addition, the IC50 at Histone deacetylase 1 is 10 nM; in series [2] it was 35 nM; with K562, 2500 nM; in the series with HEL, 3900 nM; in the series on MDA-MB-231 [3], 500 nM; on Histone deacetylase 2, 152 nM. Further, the concentration for half-maximal inhibition (IC50) at Histone deacetylase 3 worked out at 161 nM; at Histone deacetylase 8, 784 nM; in [6], 221 nM. The MIC80 was 8 µg/mL (≈ 17.7 µM) in the series on Cryptococcus neoformans and above 64 µg/mL in the series with Candida albicans [4]. Further, the “fractional inhibitory concentration index (FICI)” value in the series on Candida albicans [5] is 0.07. The outcome in the series with Candida albicans [11] and in the series on Candida albicans [16] was Active. In addition, in the series with Candida albicans [12], the result was inactive. Besides, the half-life in series [13] came out at 53.3 min. Besides, in series [14], the CLint scaled stood at 103 mL/min/kg. Further, the inhibition in vivo at 10 mg/kg in the series with MDA-MB-231 [15] turned out to be 64.9%.

`COc1cc2c(cc1-c1c(C)noc1C)[nH]c1nc(C)nc(NCCCCCCC(=O)NO)c12`: the Activity entry was “Dose-Dependent Effect” with MDA-MB-231 [1]; “Dose-Dependent Effect” with MDA-MB-231 [7]; 8.35% in the series with MDA-MB-231 [8]; 46.61% with MDA-MB-231 [9]; 49.38% in the series with MDA-MB-231 [10]. Moreover, the IC50 on Histone deacetylase 1 came to 19 nM; in [2], 63 nM; in the series with K562, 2500 nM; in the series with HEL, 900 nM; with MDA-MB-231 [3], 1000 nM; at Histone deacetylase 2, 85 nM. Further, the IC50 stood at 213 nM at Histone deacetylase 3, 782 nM on Histone deacetylase 8 and 1110 nM in [6]. Moreover, the MIC80 with Cryptococcus neoformans was 8 µg/mL (≈ 17.1 µM); in the series on Candida albicans [4] it was above 64 µg/mL. For the same compound, the “fractional inhibitory concentration index (FICI)” value with Candida albicans [5] turned out to be 0.25. The result with Candida albicans [11] and in the series with Candida albicans [16] was Active. Besides, the result with Candida albicans [12] was inactive. The half-life in [13] amounted to 19.3 min. In addition, the CLint scaled in series [14] came out at 285 mL/min/kg. In addition, the inhibition in vivo at 10 mg/kg in the series on MDA-MB-231 [15] was determined as 67.9%.

By IC50 is commonly meant the concentration that inhibits the measured activity by half. A word on the half-life: it is the time in which the quantity being followed falls by half.
